How the values were obtained:
[1] = biological target: T1, Rhodopsin kinase GRK7 (Homo sapiens) (UniProt Q8WTQ7); assay: Selectivity interaction (KinomeScan (DiscoverX)) EUB0001049a GRK7; conditions: at 1 µM
T1 sequence (whole entry): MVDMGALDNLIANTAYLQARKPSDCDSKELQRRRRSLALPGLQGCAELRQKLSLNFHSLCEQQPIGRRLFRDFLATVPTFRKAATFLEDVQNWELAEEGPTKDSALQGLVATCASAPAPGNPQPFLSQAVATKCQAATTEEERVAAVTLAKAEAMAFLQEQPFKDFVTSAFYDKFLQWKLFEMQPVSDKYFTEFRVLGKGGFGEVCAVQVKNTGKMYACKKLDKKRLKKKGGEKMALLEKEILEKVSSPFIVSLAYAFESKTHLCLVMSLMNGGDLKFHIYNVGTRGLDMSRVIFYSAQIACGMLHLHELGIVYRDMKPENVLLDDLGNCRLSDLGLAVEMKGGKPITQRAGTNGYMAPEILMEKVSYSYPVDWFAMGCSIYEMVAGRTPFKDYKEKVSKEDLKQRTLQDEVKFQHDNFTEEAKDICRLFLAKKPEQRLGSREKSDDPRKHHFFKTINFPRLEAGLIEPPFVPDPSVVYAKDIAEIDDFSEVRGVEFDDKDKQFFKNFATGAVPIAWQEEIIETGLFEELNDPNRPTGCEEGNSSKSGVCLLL

[2] = biological target: Tyrosine-protein kinase ABL2 (Homo sapiens, UniProt P42684); assay: Selectivity interaction (ActivX KiNativ screen (kinase selectivity in THP-1 cell lysates)) EUB0000639a ABL2; assay type: subcellular; conditions: lysate
Tyrosine-protein kinase ABL2, sequence (P42684 whole entry): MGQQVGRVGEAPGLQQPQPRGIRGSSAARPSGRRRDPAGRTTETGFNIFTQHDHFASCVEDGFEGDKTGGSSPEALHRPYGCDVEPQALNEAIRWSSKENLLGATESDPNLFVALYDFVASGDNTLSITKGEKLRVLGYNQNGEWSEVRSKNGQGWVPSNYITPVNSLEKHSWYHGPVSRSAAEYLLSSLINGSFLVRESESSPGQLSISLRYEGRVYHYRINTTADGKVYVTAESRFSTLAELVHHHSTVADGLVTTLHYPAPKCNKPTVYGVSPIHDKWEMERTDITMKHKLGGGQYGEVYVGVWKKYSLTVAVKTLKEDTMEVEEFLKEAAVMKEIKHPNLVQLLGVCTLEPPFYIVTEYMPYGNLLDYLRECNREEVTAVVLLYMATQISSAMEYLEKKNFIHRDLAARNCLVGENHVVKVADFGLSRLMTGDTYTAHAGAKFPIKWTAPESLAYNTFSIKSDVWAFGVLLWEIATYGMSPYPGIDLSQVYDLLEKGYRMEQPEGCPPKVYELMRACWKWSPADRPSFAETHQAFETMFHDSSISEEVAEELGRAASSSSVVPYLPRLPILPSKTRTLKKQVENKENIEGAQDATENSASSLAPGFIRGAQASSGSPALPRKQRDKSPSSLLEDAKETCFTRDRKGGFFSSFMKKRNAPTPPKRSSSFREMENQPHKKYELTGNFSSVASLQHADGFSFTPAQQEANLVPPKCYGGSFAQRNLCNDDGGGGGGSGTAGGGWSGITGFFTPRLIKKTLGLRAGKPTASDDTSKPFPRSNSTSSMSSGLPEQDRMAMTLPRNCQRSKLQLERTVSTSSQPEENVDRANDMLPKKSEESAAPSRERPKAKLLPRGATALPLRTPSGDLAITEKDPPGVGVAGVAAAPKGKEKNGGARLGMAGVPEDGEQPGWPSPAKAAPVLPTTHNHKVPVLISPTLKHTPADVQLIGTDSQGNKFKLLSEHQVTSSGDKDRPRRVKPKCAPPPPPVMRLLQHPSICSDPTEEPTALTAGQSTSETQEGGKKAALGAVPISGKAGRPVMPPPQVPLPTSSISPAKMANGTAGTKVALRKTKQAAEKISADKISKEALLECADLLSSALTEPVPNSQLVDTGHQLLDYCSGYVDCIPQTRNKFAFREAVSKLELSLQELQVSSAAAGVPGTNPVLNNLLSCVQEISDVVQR

[3] = biological target: Calcium/calmodulin-dependent protein kinase type II subunit alpha (Homo sapiens, UniProt Q9UQM7); assay: Selectivity interaction (KinomeScan (DiscoverX)) EUB0000092b CAMK2A; conditions: at 10 µM
Calcium/calmodulin-dependent protein kinase type II subunit alpha, sequence (Q9UQM7 whole entry): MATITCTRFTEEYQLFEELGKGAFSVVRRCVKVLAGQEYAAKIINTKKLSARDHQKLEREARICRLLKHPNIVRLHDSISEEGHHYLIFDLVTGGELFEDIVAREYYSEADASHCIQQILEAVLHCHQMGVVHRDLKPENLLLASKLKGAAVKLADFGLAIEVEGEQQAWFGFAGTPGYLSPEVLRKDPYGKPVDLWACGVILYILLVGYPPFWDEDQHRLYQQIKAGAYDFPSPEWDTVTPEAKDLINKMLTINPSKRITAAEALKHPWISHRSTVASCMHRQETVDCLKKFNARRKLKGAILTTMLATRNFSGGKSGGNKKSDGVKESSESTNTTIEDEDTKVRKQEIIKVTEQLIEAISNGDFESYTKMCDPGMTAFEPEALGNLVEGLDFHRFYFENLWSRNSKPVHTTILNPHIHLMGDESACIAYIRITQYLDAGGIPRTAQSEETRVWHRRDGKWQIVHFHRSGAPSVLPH

[4] = biological target: T2, Mitogen-activated protein kinase kinase kinase 7 (Homo sapiens) (UniProt O43318); assay: Selectivity interaction (Ambit KINOMEscan and KiNATiv profiling in Jurkat cells) EUB0000090b MAP3K7; assay type: cell-based; conditions: at 1 µM
T2 sequence (whole entry): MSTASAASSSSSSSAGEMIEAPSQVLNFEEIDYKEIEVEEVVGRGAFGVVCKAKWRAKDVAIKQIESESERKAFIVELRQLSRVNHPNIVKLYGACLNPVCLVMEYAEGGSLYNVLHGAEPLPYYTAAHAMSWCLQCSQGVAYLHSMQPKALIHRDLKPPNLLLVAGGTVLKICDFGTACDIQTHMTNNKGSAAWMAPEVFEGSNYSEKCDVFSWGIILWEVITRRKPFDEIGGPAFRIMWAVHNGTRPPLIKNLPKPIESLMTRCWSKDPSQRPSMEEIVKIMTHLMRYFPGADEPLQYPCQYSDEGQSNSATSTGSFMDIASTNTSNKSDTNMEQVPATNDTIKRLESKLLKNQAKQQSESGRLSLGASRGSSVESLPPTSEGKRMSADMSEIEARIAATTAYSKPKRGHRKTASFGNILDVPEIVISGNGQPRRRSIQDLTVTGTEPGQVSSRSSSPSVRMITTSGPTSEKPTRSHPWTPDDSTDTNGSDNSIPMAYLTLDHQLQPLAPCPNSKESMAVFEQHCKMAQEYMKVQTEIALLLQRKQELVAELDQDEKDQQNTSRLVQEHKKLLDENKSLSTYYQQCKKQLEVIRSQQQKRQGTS

[5] = biological target: T3, Testis-specific serine/threonine-protein kinase 1 (Homo sapiens) (UniProt Q9BXA7); conditions: at 10 µM
T3 sequence (whole entry): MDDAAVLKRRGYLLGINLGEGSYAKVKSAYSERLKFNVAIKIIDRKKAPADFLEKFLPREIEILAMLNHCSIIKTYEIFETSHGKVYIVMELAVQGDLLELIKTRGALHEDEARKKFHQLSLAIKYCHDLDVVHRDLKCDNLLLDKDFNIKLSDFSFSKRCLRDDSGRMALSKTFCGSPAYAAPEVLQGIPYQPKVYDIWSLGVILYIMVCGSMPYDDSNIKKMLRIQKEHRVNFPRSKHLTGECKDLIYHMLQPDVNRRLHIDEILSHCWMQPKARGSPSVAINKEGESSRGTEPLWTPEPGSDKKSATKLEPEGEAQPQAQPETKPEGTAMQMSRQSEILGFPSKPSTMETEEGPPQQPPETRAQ

[6] = biological target: T4, Serine/threonine-protein kinase Sgk3 (Homo sapiens) (UniProt Q96BR1); conditions: at 10 µM
T4 sequence (whole entry): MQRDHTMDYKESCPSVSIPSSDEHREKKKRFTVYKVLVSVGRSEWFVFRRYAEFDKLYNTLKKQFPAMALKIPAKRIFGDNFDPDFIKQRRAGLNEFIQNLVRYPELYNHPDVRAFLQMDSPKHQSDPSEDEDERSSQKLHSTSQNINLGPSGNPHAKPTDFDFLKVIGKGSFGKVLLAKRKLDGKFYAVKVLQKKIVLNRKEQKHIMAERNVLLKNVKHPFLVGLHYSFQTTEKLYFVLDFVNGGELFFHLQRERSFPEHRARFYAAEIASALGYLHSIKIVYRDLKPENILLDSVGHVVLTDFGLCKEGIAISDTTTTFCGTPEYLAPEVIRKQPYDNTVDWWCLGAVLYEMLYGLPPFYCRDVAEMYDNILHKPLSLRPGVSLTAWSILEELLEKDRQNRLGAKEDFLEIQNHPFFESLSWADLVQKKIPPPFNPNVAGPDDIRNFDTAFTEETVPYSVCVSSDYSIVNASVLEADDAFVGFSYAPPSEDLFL

Q: `COc1cc(Nc2nc(C)cc(-c3cnn4nc(OC)ccc34)n2)cc(C(F)(F)F)c1` was tested. Which % of control [1] did it give?
A: Its % of control is 83%.

Q: Which results are given for `CC[C@@H]1[C@H](F)C(=O)N[C@@H]1COc1nccc2cc(C(N)=O)c(OC)cc12` [ZIMLOVISERTIB]?
A: % of inhibition ([2]; at 0.01 µM): 52%; % of inhibition ([2]; at 0.04 µM): -16%; % of inhibition ([2]; at 0.2 µM): -25.4%; % of inhibition ([2]; at 1 µM): -5.3%; % of inhibition ([2]; at 5 µM): -19.6%

Q: Which % of control [3] does the source give for `CCC(=O)N1CCN(c2ccc(-n3c(=O)ccc4cnc5ccc(-c6cnc7ccccc7c6)cc5c43)cc2C(F)(F)F)CC1` here?
A: Its % of control is 93%.

Q: How did the % of control [4] turn out when `CN(C)C/C=C/C(=O)Nc1ccc(C(=O)N2CCCC(Nc3ncc(Cl)c(-c4c[nH]c5ccccc45)n3)C2)cc1` (stereo not given) was run?
A: The % of control was 90%.

Q: `Cc1cc([C@@H](C)Nc2ccccc2C(=O)O)c2nc(N3CCOCC3)cc(=O)n2c1` [AZD-6482] was tested. Which % of control [5] did it give?
A: The % of control was 100%.

Q: What about the % of control [6] of the same molecule?
A: The % of control was 86%.

From ChEMBL document CHEMBL5465560, “Selectivity Literature for EUbOPEN Chemogenomic Library” (2024)
